The values that follow come from patent US10023592B2, “Bromodomain inhibitors” (Celgene Quanticel Research, Inc., priority 2013, dated 2018).

One assay has as its target BRD4(BD1) (Homo sapiens (Human), UniProt O60885). The assay is described as follows: In vitro enzyme inhibition assay (BRD4 AlphaScreen). The class given is binding. Put shortly:
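AlphaScreen proximity readout, using streptavidin donor and Ni-chelate acceptor beads at 5 μg/mL final, monitors biotin-H4 tetraacetylated peptide interaction with purified His-tagged BRD4.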

For assay [1], the system named is Raji, human Burkitts lymphoma cells. The assay is described as follows: Cell-MTS proliferation assay, Raji. The class given is cell-based. The note with it: Homo sapiens, 168 hr. Put shortly: (§1)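 Seven-day colorimetric MTS assay; compound at 11 concentrations from 100 μM down to 2.0 nM final, added a day after plating. IC50 from OD490 normalised to DMSO controls.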

The test system of assay [2] is HL-60, human proleukemia cells. The assay is described as follows: Cell-MTS proliferation assay, HL-60. As to conditions: Homo sapiens, 168 hr. The class given is cell-based. An outline of the steps:
as §1

The test system of assay [3] is NCI-H460, human non-small cell lung cancer cells. Put plainly: Cell-MTS proliferation assay, NCI-H460. The class given is cell-based. As to conditions: Homo sapiens, 168 hr. Put shortly: as §1
Setting [4] is: in vitro enzyme inhibition assay.
[5] abbreviates: NCI-H460, Cell-MTS proliferation.
[6] abbreviates: Cell-MTS proliferation, Raji cells.
The mark [7] stands for this setting: Cell-MTS proliferation, HL-60 cells.
[8] abbreviates: Cell-MTS proliferation, NCI-H460 cells.
The mark [9] stands for this setting: Raji, Cell-MTS, class symbols A/B/C.
Where [10] appears, read: HL-60, Cell-MTS, class symbols A/B/C.
Where [11] appears, read: NCI-H460, Cell-MTS, class symbols A/B/C.

For the molecule `CCOc1sc(S(=O)(=O)CC)cc1-c1cn(C)c(=O)c2ccccc12` [Example 204, 4-(2-ethoxy-5-ethylsulfonylthiophen-3-yl)-2-methylisoquinolin-1-one], the 50% inhibitory concentration (IC50) on BRD4(BD1) (setting [4]) was under 500 nM; in assay [1] (Raji, Cell-MTS proliferation), 500 to 5000 nM; in assay [2] (HL-60, Cell-MTS proliferation) it was 500 to 5000 nM; in assay [3] (setting [5]), over 5000 nM.
`CC#CCOc1ccc(S(C)(=O)=O)cc1-c1cc(C)c(=O)n(C)c1` [Example 388, 5-(2-but-2-ynoxy-5-methylsulfonylphenyl)-1,3-dimethylpyridin-2-one]: the IC50 was under 500 nM on BRD4(BD1) (setting [4]), under 500 nM in assay [1] (setting [6]), under 500 nM in assay [2] (setting [7]) and over 5000 nM in assay [3] (setting [8]).
As for `Cc1cc(-c2cc(S(C)(=O)=O)ccc2OC2CCOCC2)cn(C)c1=O` [Example 420, 1,3-dimethyl-5-[5-methylsulfonyl-2-(oxan-4-yloxy)phenyl]pyridin-2-one], the 50% inhibitory concentration (IC50) against BRD4(BD1) (setting [4]) was under 500 nM; in assay [1] (setting [6]), 500 to 5000 nM; in assay [2] (setting [7]), under 500 nM; in assay [3] (setting [8]) it was over 5000 nM.
In the case of `CCS(=O)(=O)Nc1ccc(OC2CCOCC2)c(-c2cc(C)c(=O)n(C)c2)c1` [Example 441, N-[3-(1,5-dimethyl-6-oxopyridin-3-yl)-4-(oxan-4-yloxy)phenyl]ethanesulfonamide], the IC50 against BRD4(BD1) (setting [4]) is under 500 nM; in assay [1] (setting [6]), under 500 nM; in assay [2] (setting [7]), under 500 nM; in assay [3] (setting [8]) it was over 5000 nM.
Regarding `Cc1cc(-c2cc(S(C)(=O)=O)ccc2O[C@H]2CC[C@H](O)CC2)cn(C)c1=O` [Example 401, 5-[2-(4-hydroxycyclohexyl)oxy-5-methylsulfonylphenyl]-1,3-dimethylpyridin-2-one], the 50% inhibitory concentration (IC50) against BRD4(BD1) (setting [4]) is under 500 nM; in assay [1] (setting [6]), 500 to 5000 nM; in assay [2] (setting [7]) it was under 500 nM; in assay [3] (setting [8]), over 5000 nM.
With `COCC1COc2cc(S(C)(=O)=O)cc(-c3cn(C)c(=O)c4ccccc34)c2O1` (stereo not drawn) [Example 497, 4-[3-(methoxymethyl)-7-methylsulfonyl-2,3-dihydro-1,4-benzodioxin-5-yl]-2-methylisoquinolin-1-one], the half-inhibitory concentration (IC50) is under 500 nM on BRD4(BD1) (setting [4]), 500 to 5000 nM in assay [1] (setting [6]), 500 to 5000 nM in assay [2] (setting [7]) and over 5000 nM in assay [3] (setting [8]).
`Cn1cc(-c2cn(CS(C)(=O)=O)c(=O)cc2OCC2CC2)ccc1=O` [Example 381, 4-(cyclopropylmethoxy)-5-(1-methyl-6-oxopyridin-3-yl)-1-(methylsulfonylmethyl)pyridin-2-one]: the IC50 at BRD4(BD1) (setting [4]) was under 500 nM; in assay [1] (setting [6]) it was over 5000 nM; in assay [2] (setting [7]), 500 to 5000 nM; in assay [3] (setting [8]) it was over 5000 nM.
For `Cn1cc(-c2cc(S(N)(=O)=O)ccc2NCC2CC2)ccc1=O` [Example 453, 4-(cyclopropylmethylamino)-3-(1-methyl-6-oxopyridin-3-yl)benzenesulfonamide], the IC50 (against BRD4(BD1) (setting [4]); in assay [1] (setting [6]); in assay [2] (setting [7]); in assay [3] (setting [8])) was over 5000 nM throughout.
As for `Cn1cc(-c2nc(NS(C)(=O)=O)ncc2Oc2ccc(F)cc2F)c2ccoc2c1=O` [Example 262, N-[5-(2,4-difluorophenoxy)-4-(6-methyl-7-oxofuro[2,3-c]pyridin-4-yl)pyrimidin-2-yl]methanesulfonamide], the IC50 was under 500 nM at BRD4(BD1) (setting [4]); under 500 nM in assay [1] (Raji, Cell-MTS proliferation); under 500 nM in assay [2] (HL-60, Cell-MTS proliferation); over 5000 nM in assay [3] (setting [5]).
Take `Cc1cc(-c2cc(CS(C)(=O)=O)ccc2OCC(F)(F)F)cn(C)c1=O` [Example 427, 1,3-dimethyl-5-[5-(methylsulfonylmethyl)-2-(2,2,2-trifluoroethoxy)phenyl]pyridin-2-one]: the 50% inhibitory concentration (IC50) against BRD4(BD1) (setting [4]) is under 500 nM; in assay [1] (setting [6]), under 500 nM; in assay [2] (setting [7]) it was under 500 nM; in assay [3] (setting [8]) it was over 5000 nM.
For `Cn1cc(-c2cc(S(C)(=O)=O)cnc2OCC2CC2)c2ccccc2c1=O` [Example 321, 4-[2-(cyclopropylmethoxy)-5-methylsulfonylpyridin-3-yl]-2-methylisoquinolin-1-one], the IC50 on BRD4(BD1) (setting [4]) is under 500 nM; in assay [1] (Raji, Cell-MTS proliferation), under 500 nM; in assay [2] (HL-60, Cell-MTS proliferation) it was under 500 nM; in assay [3] (setting [5]), over 5000 nM.
With `CCn1cc(-c2cc(S(C)(=O)=O)ccc2NCC2CC2)cc(C)c1=O` [Example 428, 5-[2-(cyclopropylmethylamino)-5-methylsulfonylphenyl]-1-ethyl-3-methylpyridin-2-one], the IC50 against BRD4(BD1) (setting [4]) is under 500 nM; in assay [1] (setting [6]), 500 to 5000 nM; in assay [2] (setting [7]) it was 500 to 5000 nM; in assay [3] (setting [8]), over 5000 nM.
As for `Cn1cc(-c2cccc(NS(C)(=O)=O)c2)cc(O)c1=O` [Example 467, N-[3-(5-hydroxy-1-methyl-6-oxopyridin-3-yl)phenyl]methanesulfonamide], the IC50 at BRD4(BD1) (setting [4]) was 500 to 5000 nM; in assay [1] (setting [6]), over 5000 nM; in assay [2] (setting [7]) it was over 5000 nM; in assay [3] (setting [8]) it was over 5000 nM.
`Cc1cc(-c2cc(S(C)(=O)=O)ccc2OC2CCC(F)(F)CC2)cn(C)c1=O` [Example 415, 5-[2-(4,4-difluorocyclohexyl)oxy-5-methylsulfonylphenyl]-1,3-dimethylpyridin-2-one]: the IC50 at BRD4(BD1) (setting [4]) is under 500 nM; in assay [1] (setting [6]) it was under 500 nM; in assay [2] (setting [7]) it was under 500 nM; in assay [3] (setting [8]), over 5000 nM.
On to `Cn1cc(-c2cc(NS(C)(=O)=O)ccc2Oc2ccc(F)cc2F)cc(F)c1=O` [Example 271, N-[4-(2,4-difluorophenoxy)-3-(5-fluoro-1-methyl-6-oxopyridin-3-yl)phenyl]methanesulfonamide], for which the IC50 is under 500 nM at BRD4(BD1) (setting [4]); under 500 nM in assay [1] (Raji, Cell-MTS proliferation); under 500 nM in assay [2] (HL-60, Cell-MTS proliferation); over 5000 nM in assay [3] (setting [5]).
Turning to `CCC(=O)Nc1ccc(S(C)(=O)=O)cc1-c1cn(C)c(=O)c2ccccc12` [Example 221, N-[2-(2-methyl-1-oxoisoquinolin-4-yl)-4-methylsulfonylphenyl]propanamide], the IC50 against BRD4(BD1) (setting [4]) was over 5000 nM; in assay [1] (Raji, Cell-MTS proliferation) it was over 5000 nM; in assay [2] (HL-60, Cell-MTS proliferation), over 5000 nM; in assay [3] (setting [5]) it was over 5000 nM.
As for `Cn1cc(-c2cc(S(C)(=O)=O)ccc2O[C@H]2CC[C@@H](N)CC2)c2ccccc2c1=O` [Example 183, 4-[2-(cis-4-aminocyclohexyl)oxy-5-methylsulfonylphenyl]-2-methylisoquinolin-1-one], the IC50 is under 500 nM at BRD4(BD1) (setting [4]); over 5000 nM in assay [1] (Raji, Cell-MTS proliferation); 500 to 5000 nM in assay [2] (HL-60, Cell-MTS proliferation); over 5000 nM in assay [3] (setting [5]).
`Cn1cc(-c2cc(S(C)(=O)=O)ccc2OC2CCCOC2)c2ccccc2c1=O` (stereo not drawn) [Example 179, 2-methyl-4-[5-methylsulfonyl-2-(oxan-3-yloxy)phenyl]isoquinolin-1-one]: the half-maximal inhibitory concentration (IC50) against BRD4(BD1) (setting [4]) is under 500 nM; in assay [1] (Raji, Cell-MTS proliferation) it was under 500 nM; in assay [2] (HL-60, Cell-MTS proliferation), under 500 nM; in assay [3] (setting [5]), over 5000 nM.
For the molecule `Cc1cc(=O)n(C)cc1-c1cc(NS(C)(=O)=O)ccc1Oc1ccc(F)cc1F` [Example 101, N-[4-(2,4-difluorophenoxy)-3-(1,4-dimethyl-6-oxopyridin-3-yl)phenyl]methanesulfonamide], the concentration for half-maximal inhibition (IC50) on BRD4(BD1) (class symbols A/B/C) is under 500 nM; in assay [1] (setting [9]), under 500 nM; in assay [2] (setting [10]), under 500 nM; in assay [3] (setting [11]) it was over 5000 nM.
Take `CCS(=O)(=O)Nc1cccc(-c2cn(C)c(=O)c3ccncc23)c1` [Example 123, N-[3-(2-methyl-1-oxo-2,6-naphthyridin-4-yl)phenyl]ethanesulfonamide]: the IC50 against BRD4(BD1) (class symbols A/B/C) is 500 to 5000 nM; in assay [1] (setting [9]), 500 to 5000 nM; in assay [2] (setting [10]) it was 500 to 5000 nM; in assay [3] (setting [11]), over 5000 nM.
`CCS(=O)(=O)Nc1ccc(Oc2ccc(F)cc2F)c(-c2cc(OCC(F)(F)F)c(=O)n(C)c2)c1` [Example 290, N-[4-(2,4-difluorophenoxy)-3-[1-methyl-6-oxo-5-(2,2,2-trifluoroethoxy)pyridin-3-yl]phenyl]ethanesulfonamide]: the half-maximal inhibitory concentration (IC50) against BRD4(BD1) (setting [4]) is under 500 nM; in assay [1] (Raji, Cell-MTS proliferation), under 500 nM; in assay [2] (HL-60, Cell-MTS proliferation), under 500 nM; in assay [3] (setting [5]), over 5000 nM.
`Cc1cc(-c2cc(N(C)S(C)(=O)=O)ccc2Oc2ccc(F)cc2F)cn(C)c1=O` [Example 229, N-[4-(2,4-difluorophenoxy)-3-(1,5-dimethyl-6-oxopyridin-3-yl)phenyl]-N-methylmethanesulfonamide]: the IC50 against BRD4(BD1) (setting [4]) was under 500 nM; in assay [1] (Raji, Cell-MTS proliferation), under 500 nM; in assay [2] (HL-60, Cell-MTS proliferation), under 500 nM; in assay [3] (setting [5]), over 5000 nM.
On to `CCS(=O)(=O)c1ccc(OCC2CC2)c(-c2cn(C)c(=O)c3cnc(-c4cnn(C)c4)nc23)c1` [Example 226, 8-[2-(cyclopropylmethoxy)-5-ethylsulfonylphenyl]-6-methyl-2-(1-methylpyrazol-4-yl)pyrido[4,3-d]pyrimidin-5-one], for which the 50% inhibitory concentration (IC50) at BRD4(BD1) (setting [4]) was under 500 nM; in assay [1] (Raji, Cell-MTS proliferation), under 500 nM; in assay [2] (HL-60, Cell-MTS proliferation) it was under 500 nM; in assay [3] (setting [5]), over 5000 nM.
Take `Cc1cc(-c2cc(NS(C)(=O)=O)ccc2OC2CCOCC2)cn(C)c1=O` [Example 439, N-[3-(1,5-dimethyl-6-oxopyridin-3-yl)-4-(oxan-4-yloxy)phenyl] methanesulfonamide]: the IC50 against BRD4(BD1) (setting [4]) was under 500 nM; in assay [1] (setting [6]), under 500 nM; in assay [2] (setting [7]) it was under 500 nM; in assay [3] (setting [8]), over 5000 nM.
